Data: US20220257595A1, “MACITENTAN FOR USE IN TREATING PORTOPULMONARY HYPERTENSION” (ACTELION PHARMACEUTICALS LTD, priority 2019, published 2022)

System: patients with PoPH
Assay: PORTICO: WHO functional class
Type: in vivo, human
Method: (iii) WHO functional class: WHO FC was evaluated at Screening, Baseline (Visit 2/Randomization), and then every visit until EOT-DB or EOT-OL, whichever came last.
Handling of missing data: For change from baseline to Weeks 4, 8 and 12 in 6MWD and WHO FC, the last available value (including baseline) was carried forward unless the patient died before, or on Day 42, 70, 98 (the upper limit treatment days of Weeks 4, 8 and 12 windows, respectively), in which case the following rules considering worst case were used to replace all the missing values from the week after death up to Week 12: • For 6MWD, worst fixed value was set to 0, • For WHO FC, worst fixed value was set to class IV, • For change from baseline to Week 12 in NT-proBNP, the same imputation rule as for PVR was applied as described herein.
Statistical analysis: The change from baseline to Week 12 in mRAP, mPAP, cardiac index, TPR and SVO2 were analyzed on the FAS (with imputation) using an ANCOVA with factors for treatment group, background PAH-specific therapy at baseline (Yes/No as per IXRS, randomization stratification factor), region (Europe/North America/Latin America as per IXRS, randomization stratification factor) and a covariate for baseline corresponding variable. Other RHC variables are listed only. WHO FC is summarized on the FAS (with imputation) by time point and treatment group using frequency tables. Changes from baseline in WHO FC were dichotomized as worsening (i.e., change >0) versus no change or improvement (i.e., change ≤0). Worsening was analyzed using a logistic regression model (exact) with covariates for treatment group, background PAH-specific therapy at baseline (Yes/No as per IXRS, randomization stratification factor) and region (Europe/North America/Latin America as per IXRS, randomization stratification factor). 6MWD is summarized on the FAS (with imputation) by time point and treatment group using descriptive statistics. Change from baseline to each time point is summarized similarly. Change from baseline in 6MWD (up to Week 12) was analyzed using a mixed-effect model repeated measure (MMRM) with factors for treatment group, time point, treatment by time interaction, background PAH-specific therapy at baseline (Yes/No as per IXRS, randomization stratification factor) and region (Europe/North America/Latin America as per IXRS, randomization stratification factor), and covariates for baseline 6MWD and WHO FC. An unstructured covariance matrix was used to account for the correlation between repeated measurements from the same patient. NT-proBNP is summarized on the FAS (with imputation) by time point and treatment group using descriptive statistics as well as geometric means and CVs. The ratio of Week 12 to baseline NT-proBNP is summarized similarly. The ratio versus baseline in NT-proBNP was log-transformed and analyzed using an ANCOVA with covariates for treatment group, background PAH-specific therapy at baseline (Yes/No as per IXRS, randomization stratification factor), region (Europe/North America/Latin America as per IXRS, randomization stratification factor) and baseline log NT-proBNP.
Macitentan treatment period: Changes from macitentan baseline to each time point in WHO FC, 6MWD, NT-pro BNP and Borg dyspnea index (related to the macitentan treatment period) are summarized for the MTS using descriptive statistics.

For `CCCNS(=O)(=O)Nc1ncnc(OCCOc2ncc(Br)cn2)c1-c1ccc(Br)cc1` [macitentan, N-[5-(4-Bromophenyl)-6-[2-[(5-bromo-2-pyrimidinyl)oxy]ethoxy]-4-pyrimidinyl]-N′-propylsulfamide], the “WHO FC Class I at Week 12, total” value (FAS with imputation, N=43) was 3 (7.0) n (%), the “WHO FC Class II at Week 12, total” value (FAS with imputation, N=43) was 27 (62.8) n (%) and the “WHO FC Class III at Week 12, total” value (FAS with imputation, N=43) was 13 (30.2) n (%). For the same compound, the “WHO FC Class IV at Week 12, total” value (FAS with imputation, N=43) was 0 n (%), the “WHO FC Improved, baseline to Week 12” value (FAS with imputation, N=43) was 9 (20.9) n (%) and the “WHO FC Not Worsened, baseline to Week 12” value (FAS with imputation, N=43) was 37 (86.0) n (%). The “WHO FC Unchanged, baseline to Week 12” value (FAS with imputation, N=43) was 28 (65.1) n (%), the “WHO FC Worsened, baseline to Week 12” value (FAS with imputation, N=43) was 6 (14.0) n (%) and the “WHO FC shift: baseline Class I to Week 12 Class I” value (FAS with imputation, N=43) was 1 (2.3) n (%). The “WHO FC shift: baseline Class I to Week 12 Class II” value (FAS with imputation, N=43) was 0 n (%), the “WHO FC shift: baseline Class I to Week 12 Class III” value (FAS with imputation, N=43) was 0 n (%) and the “WHO FC shift: baseline Class I to Week 12 Class IV” value (FAS with imputation, N=43) was 0 n (%). The “WHO FC shift: baseline Class II to Week 12 Class I” value (FAS with imputation, N=43) was 1 (2.3) n (%), the “WHO FC shift: baseline Class II to Week 12 Class II” value (FAS with imputation, N=43) was 20 (46.5) n (%) and the “WHO FC shift: baseline Class II to Week 12 Class III” value (FAS with imputation, N=43) was 6 (14.0) n (%). For the same compound, the “WHO FC shift: baseline Class II to Week 12 Class IV” value (FAS with imputation, N=43) was 0 n (%), the “WHO FC shift: baseline Class III to Week 12 Class I” value (FAS with imputation, N=43) was 1 (2.3) n (%) and the “WHO FC shift: baseline Class III to Week 12 Class II” value (FAS with imputation, N=43) was 7 (16.3) n (%). For the same compound, the “WHO FC shift: baseline Class III to Week 12 Class III” value (FAS with imputation, N=43) was 7 (16.3) n (%), the “WHO FC shift: baseline Class III to Week 12 Class IV” value (FAS with imputation, N=43) was 0 n (%) and the “Patients with no change in WHO FC at Week 12” value (FAS, macitentan group) was 65.1%. The “Patients with worsening in WHO FC at Week 12” value (FAS, macitentan group, 6 patients (4 imputed)) was 14.0%, the “Patients with improvement in WHO FC at Week 12” value (FAS, macitentan group, 9 patients) was 20.9% and the “Patients with worsening in WHO FC at Week 24” value (MTS without imputation, macitentan in both periods, 2/34) was 5.9%. The “Patients with no change in WHO FC at Week 24” value (MTS without imputation, macitentan in both periods, 21/34) was 61.8%, the “Patients with worsening in WHO FC at Week 12 after macitentan initiation in OL period” value (MTS without imputation, vs macitentan baseline, 3/35) was 8.6% and the “Patients with no change in WHO FC at Week 12 after macitentan initiation in OL period” value (MTS without imputation, vs macitentan baseline, 24/35) was 68.6%.
